Assay in all cases: KINOMEscan
Type in all cases: binding
What all share (conditions): read-out: % control activity remaining

The target in one assay is T1, BIKE (Homo sapiens, UniProt Q9NSY1).
T1 construct: purchased Eurofins DiscoverX KINOMEscan

A further assay addresses T2, CDK2 (Homo sapiens, UniProt P24941).
T2 construct: purchased Eurofins DiscoverX KINOMEscan

A further assay deals with T3, CDK5 (Homo sapiens, UniProt Q00535).
T3 construct: purchased Eurofins DiscoverX KINOMEscan

The target of a further assay is T4, FGFR3(G697C) (Homo sapiens, UniProt P22607, G697C).
T4 construct: purchased Eurofins DiscoverX KINOMEscan

Another assay addresses T5, INSR (Homo sapiens, UniProt P06213).
T5 construct: purchased Eurofins DiscoverX KINOMEscan

The target in a further assay is T6, MARK2 (Homo sapiens, UniProt Q7KZI7).
T6 construct: purchased Eurofins DiscoverX KINOMEscan

The target of another assay is T7, p38-beta (Homo sapiens, UniProt Q15759).
T7 construct: purchased Eurofins DiscoverX KINOMEscan

For another assay, the target named is T8, PRKCH (Homo sapiens, UniProt P24723).
T8 construct: purchased Eurofins DiscoverX KINOMEscan
T8 sequence (P24723 whole entry): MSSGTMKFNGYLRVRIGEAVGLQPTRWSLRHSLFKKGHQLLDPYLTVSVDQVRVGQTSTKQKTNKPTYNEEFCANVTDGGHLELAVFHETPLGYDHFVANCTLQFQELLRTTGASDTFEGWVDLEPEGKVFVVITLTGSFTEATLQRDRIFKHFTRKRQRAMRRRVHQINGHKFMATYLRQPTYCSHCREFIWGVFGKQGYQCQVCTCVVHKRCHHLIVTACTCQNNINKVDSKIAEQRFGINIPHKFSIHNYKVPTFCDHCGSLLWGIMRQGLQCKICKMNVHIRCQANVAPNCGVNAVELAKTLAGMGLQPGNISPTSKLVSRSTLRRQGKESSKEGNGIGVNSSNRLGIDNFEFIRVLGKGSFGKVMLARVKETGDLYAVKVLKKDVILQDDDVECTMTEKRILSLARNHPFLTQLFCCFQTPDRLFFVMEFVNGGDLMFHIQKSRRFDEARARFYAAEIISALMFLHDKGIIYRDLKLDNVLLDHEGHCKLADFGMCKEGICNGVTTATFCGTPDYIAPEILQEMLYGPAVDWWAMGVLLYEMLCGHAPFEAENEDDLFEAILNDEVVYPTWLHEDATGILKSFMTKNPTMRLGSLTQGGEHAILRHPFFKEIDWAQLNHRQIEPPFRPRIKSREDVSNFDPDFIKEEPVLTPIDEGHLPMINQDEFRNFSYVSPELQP

The target of another assay is T9, RET(M918T) (Homo sapiens, UniProt P07949, M918T).
T9 construct: purchased Eurofins DiscoverX KINOMEscan
T9 sequence (P07949 29-1114 M918T): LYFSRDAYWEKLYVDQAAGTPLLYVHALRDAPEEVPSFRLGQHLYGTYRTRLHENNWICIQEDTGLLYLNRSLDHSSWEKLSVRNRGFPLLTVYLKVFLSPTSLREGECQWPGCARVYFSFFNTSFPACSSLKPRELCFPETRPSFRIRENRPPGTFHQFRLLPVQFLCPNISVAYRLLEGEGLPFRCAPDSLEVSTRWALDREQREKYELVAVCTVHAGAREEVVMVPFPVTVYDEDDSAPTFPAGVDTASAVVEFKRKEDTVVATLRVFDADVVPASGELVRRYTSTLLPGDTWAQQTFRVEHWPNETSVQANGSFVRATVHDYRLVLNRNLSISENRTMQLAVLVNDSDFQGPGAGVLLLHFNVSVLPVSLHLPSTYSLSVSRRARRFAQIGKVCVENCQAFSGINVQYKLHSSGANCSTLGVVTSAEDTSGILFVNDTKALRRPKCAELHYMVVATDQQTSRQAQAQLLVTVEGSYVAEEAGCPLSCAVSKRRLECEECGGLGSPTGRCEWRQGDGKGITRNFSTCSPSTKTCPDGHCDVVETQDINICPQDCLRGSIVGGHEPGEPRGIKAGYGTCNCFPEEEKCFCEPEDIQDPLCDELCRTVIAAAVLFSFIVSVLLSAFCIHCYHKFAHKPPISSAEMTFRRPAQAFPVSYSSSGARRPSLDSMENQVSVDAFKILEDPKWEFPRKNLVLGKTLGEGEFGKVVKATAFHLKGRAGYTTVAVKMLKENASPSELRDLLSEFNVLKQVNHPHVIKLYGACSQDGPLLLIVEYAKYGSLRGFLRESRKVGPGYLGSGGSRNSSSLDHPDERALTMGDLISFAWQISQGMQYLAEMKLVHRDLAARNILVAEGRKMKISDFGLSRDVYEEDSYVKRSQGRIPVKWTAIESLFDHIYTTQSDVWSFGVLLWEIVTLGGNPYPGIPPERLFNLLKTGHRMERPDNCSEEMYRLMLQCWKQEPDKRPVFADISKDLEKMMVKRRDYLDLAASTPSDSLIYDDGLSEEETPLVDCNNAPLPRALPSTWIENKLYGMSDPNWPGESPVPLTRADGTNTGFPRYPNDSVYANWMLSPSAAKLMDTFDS

Assay [1] addresses T10, RSK1(Kin.Dom.2-C-terminal) (Homo sapiens, UniProt Q15418).
T10 construct: RSK1(Kin.Dom.2-C-terminal); purchased Eurofins DiscoverX KINOMEscan

Assay [2] deals with T11, RSK3(Kin.Dom.2-C-terminal) (Homo sapiens, UniProt Q15349).
T11 construct: RSK3(Kin.Dom.2-C-terminal); purchased Eurofins DiscoverX KINOMEscan

The next assay concerns the target T12, SNRK (Homo sapiens, UniProt Q9NRH2).
T12 construct: purchased Eurofins DiscoverX KINOMEscan
T12 sequence (Q9NRH2 1-765): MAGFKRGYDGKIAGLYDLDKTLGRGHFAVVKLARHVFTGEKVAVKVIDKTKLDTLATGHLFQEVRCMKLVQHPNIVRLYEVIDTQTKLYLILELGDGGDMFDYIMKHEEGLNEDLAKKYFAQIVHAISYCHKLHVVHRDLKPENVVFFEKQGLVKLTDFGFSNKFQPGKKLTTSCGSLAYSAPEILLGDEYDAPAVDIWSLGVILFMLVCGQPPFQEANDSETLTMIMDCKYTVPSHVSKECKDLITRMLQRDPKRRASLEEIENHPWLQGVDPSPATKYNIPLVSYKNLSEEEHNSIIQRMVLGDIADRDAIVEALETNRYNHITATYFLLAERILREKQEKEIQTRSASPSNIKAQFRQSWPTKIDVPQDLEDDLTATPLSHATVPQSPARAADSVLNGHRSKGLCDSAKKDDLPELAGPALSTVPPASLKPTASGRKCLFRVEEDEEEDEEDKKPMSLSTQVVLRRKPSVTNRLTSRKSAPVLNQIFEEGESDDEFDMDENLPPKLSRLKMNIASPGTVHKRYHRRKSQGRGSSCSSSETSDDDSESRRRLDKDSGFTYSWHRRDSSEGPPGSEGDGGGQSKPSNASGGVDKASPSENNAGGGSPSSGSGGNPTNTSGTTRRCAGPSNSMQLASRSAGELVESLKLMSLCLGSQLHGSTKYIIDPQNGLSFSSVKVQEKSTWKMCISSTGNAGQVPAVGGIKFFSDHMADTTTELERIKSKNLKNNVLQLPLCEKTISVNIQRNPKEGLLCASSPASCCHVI

The next assay addresses T13, TGFBR2 (Homo sapiens, UniProt P37173).
T13 construct: purchased Eurofins DiscoverX KINOMEscan

The target in a further assay is T14, TNK1 (Homo sapiens, UniProt Q13470).
T14 construct: purchased Eurofins DiscoverX KINOMEscan
T14 sequence (Q13470 1-666): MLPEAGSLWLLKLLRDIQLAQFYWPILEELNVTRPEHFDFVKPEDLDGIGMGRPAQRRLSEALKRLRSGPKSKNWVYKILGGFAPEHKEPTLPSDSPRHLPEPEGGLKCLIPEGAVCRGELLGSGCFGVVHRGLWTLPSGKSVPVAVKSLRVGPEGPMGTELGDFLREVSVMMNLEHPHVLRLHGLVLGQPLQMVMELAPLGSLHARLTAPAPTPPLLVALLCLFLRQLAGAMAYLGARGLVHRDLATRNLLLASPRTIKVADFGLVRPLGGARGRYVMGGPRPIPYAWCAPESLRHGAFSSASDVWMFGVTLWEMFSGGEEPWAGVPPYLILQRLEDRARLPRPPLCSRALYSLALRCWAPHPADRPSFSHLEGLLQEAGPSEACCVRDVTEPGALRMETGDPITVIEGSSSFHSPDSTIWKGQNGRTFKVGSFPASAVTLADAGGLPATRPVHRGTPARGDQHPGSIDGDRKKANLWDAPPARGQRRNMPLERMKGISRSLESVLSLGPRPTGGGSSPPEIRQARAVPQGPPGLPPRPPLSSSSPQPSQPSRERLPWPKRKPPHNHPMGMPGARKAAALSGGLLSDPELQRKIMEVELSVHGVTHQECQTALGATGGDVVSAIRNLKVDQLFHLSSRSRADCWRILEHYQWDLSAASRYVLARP

A further assay concerns the target T15, TRKC (Homo sapiens, UniProt Q16288).
T15 construct: purchased Eurofins DiscoverX KINOMEscan

The target of a further assay is T16, YANK2 (Homo sapiens, UniProt Q9NY57).
T16 construct: purchased Eurofins DiscoverX KINOMEscan

T13 sequence (P37173 23-567): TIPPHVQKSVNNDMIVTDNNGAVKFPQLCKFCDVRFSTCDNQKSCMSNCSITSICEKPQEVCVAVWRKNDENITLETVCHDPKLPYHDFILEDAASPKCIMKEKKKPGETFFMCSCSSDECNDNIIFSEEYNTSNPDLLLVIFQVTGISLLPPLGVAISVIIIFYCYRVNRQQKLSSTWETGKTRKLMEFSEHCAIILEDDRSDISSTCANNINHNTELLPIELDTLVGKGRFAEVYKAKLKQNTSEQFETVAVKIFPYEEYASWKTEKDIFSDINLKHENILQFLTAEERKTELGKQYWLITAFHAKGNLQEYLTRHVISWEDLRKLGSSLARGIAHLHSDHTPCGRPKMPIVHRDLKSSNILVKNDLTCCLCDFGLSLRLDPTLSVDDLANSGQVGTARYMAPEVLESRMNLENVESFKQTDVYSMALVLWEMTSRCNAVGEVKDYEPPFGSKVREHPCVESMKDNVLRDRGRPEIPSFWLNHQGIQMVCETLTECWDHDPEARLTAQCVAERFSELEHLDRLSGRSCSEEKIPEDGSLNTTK
T15 sequence (Q16288 32-839): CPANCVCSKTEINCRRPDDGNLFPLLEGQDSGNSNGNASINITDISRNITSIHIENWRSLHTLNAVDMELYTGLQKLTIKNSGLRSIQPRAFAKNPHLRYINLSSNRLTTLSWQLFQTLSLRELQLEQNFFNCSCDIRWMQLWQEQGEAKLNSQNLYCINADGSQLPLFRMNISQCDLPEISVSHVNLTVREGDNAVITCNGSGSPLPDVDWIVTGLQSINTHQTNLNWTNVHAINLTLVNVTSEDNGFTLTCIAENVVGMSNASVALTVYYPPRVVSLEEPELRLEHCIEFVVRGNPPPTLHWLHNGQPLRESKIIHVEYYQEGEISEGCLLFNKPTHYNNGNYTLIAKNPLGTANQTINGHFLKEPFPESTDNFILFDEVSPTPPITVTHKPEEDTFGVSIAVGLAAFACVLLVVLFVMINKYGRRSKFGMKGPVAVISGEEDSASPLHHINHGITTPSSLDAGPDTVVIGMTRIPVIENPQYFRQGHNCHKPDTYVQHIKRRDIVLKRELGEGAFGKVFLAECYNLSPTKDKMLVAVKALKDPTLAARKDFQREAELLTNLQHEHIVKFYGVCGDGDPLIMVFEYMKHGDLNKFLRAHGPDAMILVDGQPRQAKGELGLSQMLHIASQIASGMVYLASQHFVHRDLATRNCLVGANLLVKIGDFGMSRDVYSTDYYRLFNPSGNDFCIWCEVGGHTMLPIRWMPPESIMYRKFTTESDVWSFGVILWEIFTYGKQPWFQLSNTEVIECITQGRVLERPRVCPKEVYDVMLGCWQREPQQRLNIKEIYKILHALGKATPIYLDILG
T5 sequence (P06213 28-1382): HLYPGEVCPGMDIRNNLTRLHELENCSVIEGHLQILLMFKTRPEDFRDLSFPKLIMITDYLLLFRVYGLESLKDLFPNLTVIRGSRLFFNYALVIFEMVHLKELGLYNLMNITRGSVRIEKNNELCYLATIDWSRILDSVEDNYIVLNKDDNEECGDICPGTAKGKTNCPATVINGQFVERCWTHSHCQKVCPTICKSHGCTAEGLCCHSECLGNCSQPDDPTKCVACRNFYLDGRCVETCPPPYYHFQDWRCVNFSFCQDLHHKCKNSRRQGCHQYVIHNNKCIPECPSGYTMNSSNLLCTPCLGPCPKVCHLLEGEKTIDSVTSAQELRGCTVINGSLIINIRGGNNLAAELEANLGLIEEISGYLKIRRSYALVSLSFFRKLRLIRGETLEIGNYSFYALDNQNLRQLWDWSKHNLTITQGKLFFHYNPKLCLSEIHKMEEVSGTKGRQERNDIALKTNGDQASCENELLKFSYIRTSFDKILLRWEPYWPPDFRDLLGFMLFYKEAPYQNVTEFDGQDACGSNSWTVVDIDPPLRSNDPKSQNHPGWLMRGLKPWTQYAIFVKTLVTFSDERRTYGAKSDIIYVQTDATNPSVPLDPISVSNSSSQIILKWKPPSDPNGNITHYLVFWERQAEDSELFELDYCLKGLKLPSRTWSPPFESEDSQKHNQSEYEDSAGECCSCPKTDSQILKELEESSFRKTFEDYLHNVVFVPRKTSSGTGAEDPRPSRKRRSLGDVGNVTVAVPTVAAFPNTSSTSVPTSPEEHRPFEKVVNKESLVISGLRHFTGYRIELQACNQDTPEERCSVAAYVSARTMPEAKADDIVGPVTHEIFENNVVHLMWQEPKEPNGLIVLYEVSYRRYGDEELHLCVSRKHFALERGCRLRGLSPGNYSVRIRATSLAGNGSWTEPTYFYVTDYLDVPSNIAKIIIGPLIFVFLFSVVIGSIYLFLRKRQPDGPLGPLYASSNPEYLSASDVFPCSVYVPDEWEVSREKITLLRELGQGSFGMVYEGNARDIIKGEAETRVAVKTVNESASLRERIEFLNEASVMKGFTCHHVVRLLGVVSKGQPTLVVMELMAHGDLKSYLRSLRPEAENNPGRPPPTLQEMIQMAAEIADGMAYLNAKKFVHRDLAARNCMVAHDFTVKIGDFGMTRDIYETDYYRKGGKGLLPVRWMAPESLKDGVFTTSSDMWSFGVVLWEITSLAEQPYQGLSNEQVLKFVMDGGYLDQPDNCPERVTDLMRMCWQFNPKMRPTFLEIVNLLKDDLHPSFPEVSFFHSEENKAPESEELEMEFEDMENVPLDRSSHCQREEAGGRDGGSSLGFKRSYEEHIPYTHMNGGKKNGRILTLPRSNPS
T3 sequence (Q00535 whole entry): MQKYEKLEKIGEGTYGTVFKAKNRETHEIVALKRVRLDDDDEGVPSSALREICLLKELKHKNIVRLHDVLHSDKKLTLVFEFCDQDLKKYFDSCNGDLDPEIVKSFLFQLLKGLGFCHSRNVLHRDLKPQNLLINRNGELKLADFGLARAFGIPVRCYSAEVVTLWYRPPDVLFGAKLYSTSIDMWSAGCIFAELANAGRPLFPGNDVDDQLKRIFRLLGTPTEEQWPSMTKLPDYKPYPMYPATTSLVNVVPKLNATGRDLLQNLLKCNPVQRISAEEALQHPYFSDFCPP
T10 sequence (Q15418 418-675 limits assumed): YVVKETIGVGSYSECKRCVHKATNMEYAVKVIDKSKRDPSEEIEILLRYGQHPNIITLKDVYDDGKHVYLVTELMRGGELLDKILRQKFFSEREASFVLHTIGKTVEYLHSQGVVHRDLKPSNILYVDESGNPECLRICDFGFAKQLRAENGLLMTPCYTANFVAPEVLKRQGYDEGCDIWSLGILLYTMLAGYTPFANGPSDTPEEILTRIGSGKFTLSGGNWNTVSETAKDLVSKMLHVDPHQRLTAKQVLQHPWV

As to `Clc1cc(NCC2CC2)c2ncc(-c3ccc4[nH]ncc4c3)n2n1` [compound 2, 6-Chloro-N-(cyclopropylmethyl)-3-(1H-indazol-5-yl)imidazo[1,2-b]pyridazin-8-amine], the remaining binding at 1 µM on BIKE is 34%; at CDK2, 88%; at CDK5, 100%; at FGFR3(G697C), 78%; on INSR, 99%; at MARK2, 96%. For the same compound, the remaining binding at 1 µM on p38-beta is 94%; on PRKCH it was 96%; at RET(M918T), 100%; in [1], 83%; in assay [2] it was 100%; at SNRK, 99%. Besides, the remaining binding at 1 µM was determined as 100% at TGFBR2, 69% at TNK1, 87% on TRKC and 94% at YANK2.

Regarding `O=C(CN1CCOCC1)N[C@H]1CC[C@H](Nc2cc(Cl)nn3c(-c4ccc5[nH]ncc5c4)cnc23)CC1` [compound 26], the remaining binding at 1 µM worked out at 13% at BIKE; 95% on CDK2; 92% at CDK5; 85% at FGFR3(G697C); 91% on INSR; 88% at MARK2. The remaining binding at 1 µM was 94% at p38-beta; 100% at PRKCH; 92% at RET(M918T); 59% in [1]; 94% in [2]; 100% at SNRK. Moreover, the remaining binding at 1 µM at TGFBR2, at TNK1, on TRKC and at YANK2 was 100% throughout.

`CN1CCC(CNc2cc(Cl)nn3c(-c4cc5nc(Nc6ccccc6)[nH]c5cc4F)cnc23)CC1` [compound 31, 6-Chloro-3-(6-fluoro-2-(phenylamino)-1H-benzo[d]imidazol-5-yl)-N-((1-methylpiperidin-4-yl)methyl)imidazo[1,2-b]pyridazin-8-amine]: the remaining binding at 1 µM at BIKE is 91%; on CDK2 it was 98%; at CDK5 it was 99%; at FGFR3(G697C), 91%; on INSR, 97%; on MARK2 it was 100%. Further, the remaining binding at 1 µM came to 99% on p38-beta; 100% at PRKCH; 80% at RET(M918T); 96% in [1]; 80% in [2]; 79% at SNRK. The remaining binding at 1 µM at TGFBR2, on TNK1, on TRKC and at YANK2 was 100% each time.

For the origin of these results see article PMC6437697 (Journal of Medicinal Chemistry, 2019).
